Among the data in US20240398783A1, “Compounds and Pharmaceutical Compositions Comprising Inhibitors of Amyloid Peptide Interactions with Glycosaminoglycans, Methods of Treatment and Use Thereof” (Gismo Therapeutics, Inc., priority 2021, published 2024) are IC50 and inhibition values, retold here.

The target in assay [1] is Alpha-Synuclein Protofibril binding to heparin (HS-GAG) (Homo sapiens, UniProt P37840). Put plainly: Inhibition of alpha-synuclein protofibril binding to immobilized heparin-BSA (ELISA). Details: species or system porcine. Conditions: for inhibition at 30 µM: read-out: Alpha-Synuclein/Heparin Activity (% inhibition class). As for the experimental part: (§1) Porcine intestinal mucosa heparin conjugated to Bovine Serum Albumin (Heparin-BSA) was prepared as described (Najjam, S. et al. 1997, Cytokine 12, 1013-1022). Heparin is a sulfated HS-GAG and is commonly used as a HS-GAG in biochemical and binding assays (Lindahl, U. and Kjellen, L. (2013) ibid). Heparin-BSA at 0.01 mg/ml in Phosphate Buffered Saline (PBS; pH 7.4) was added to a 96 well polystyrene ELISA plate (NUNC Cat. No. 449824; 100 μl per well) and incubated Over Night (ON) at 4 degrees Celsius. For negative controls, ELISA plates were coated with BSA instead of Heparin-BSA, using the same procedure. Following the incubation, the plate was washed consecutively, by immersion, with de-ionized water and PBS (pH 7.4). The ELISA plate was then blocked with nonfat milk (2%, 200 μl per well) for 2 hours at Room Temperature (RT) with gentle shaking. Following blocking, the plate was washed with de-ionized water then PBS (pH 7.4). GBAPs were dissolved and diluted in PBS (pH 6.5, supplemented with 0.1% BSA) at desired concentrations, added to the ELISA plates containing immobilized Heparin-BSA (100 μl per well) and incubated for 2 hours at RT with gentle shaking. Following incubation, the plate was washed with de-ionized water and three times with PBS (pH 6.5) plus Tween. Bound GBAP was detected by a monoclonal antibody specific for that GBAP, followed by incubation with secondary antibody conjugated to horseradish peroxidase (HRP). Antibody was diluted in PBS (pH 6.5 supplemented with 1% BSA). Following each incubation with antibody, the plate was washed with de-ionized water and three times with PBS (pH 6.5) wash buffer containing 0.1% Tween. The peroxidase substrate chromogen, TMB (Dako Cat. No. S1599) was added (100 μl per well) to the ELISA plate and incubated at room temperature. After 5 minutes ELISA Stop Solution (hydrochloric acid 1N, sulfuric acid 3N) was added (100 μl per well) to stop the peroxidase catalyzed colorimetric reaction. The Optical Density of the samples was measured at 450 nm using an ELISA plate reader (BioTek Synergy H1). Following color development, the % inhibition compared to control (BSA-coated plates) was determined. IC-50s were calculated using GraphPad Prism software.
The assay was performed as described in Example 43, with the following modifications. Following to coating the plates with Heparin-BSA, plates were washed as described. The compounds were dissolved in DMSO at 10 mM final concentration and further diluted prior to assay. DMSO concentration in the screening well was up to […]. Individual compounds were co-incubated with alpha-synuclein on plates containing immobilized heparin. Alpha-synuclein purchased from rPeptide (Cat. No. S1001) was used to prepare protofibrils as described in Ihse et al., 2017. Alpha-synuclein was dissolved in PBS (pH7.4) to a concentration of 140 μM (˜2 mg/ml), and incubated for 7 days at 37° C. with rotary agitation (400 rpm). Resulting fibrils were sonicated for 10 minutes in ultrasonic water bath, quickly frozen and kept in aliquots at −80 degrees Celsius. Protofibrillar alpha-synuclein diluted in PBS (pH 6.5, supplemented with BSA, 0.1%) was added to the ELISA plate (100 μl per well) and incubated for 2 hours at RT with gentle shaking. Following the incubation, the plate was washed with de-ionized water and three times with PBS (pH 6.5) plus Tween. Bound Alpha-synuclein was detected by Anti-Alpha-synuclein Monoclonal Antibody 211 (Santa Cruz Cat. No. sc-12767), followed by secondary anti-IgG antibody conjugated to HRP (R&D System, Cat. No. HAF007). Following to color development with TMB, as described in Example 43, the Optical Density of the samples was measured at 450 nm using an ELISA plate reader. Following color development, the % inhibition compared to control (no compound, DMSO control) for every compound was determined.
An example of inhibition curve is shown in FIG. 1 for Inhibitor Compounds 22 and 24. […]
For orientation: An ELISA detects its analyte on a solid surface through an enzyme-linked reagent.

In assay [2] the target is TDP-43 binding to heparin (HS-GAG) (Homo sapiens, UniProt Q13148). Kind of assay: Inhibition of TDP-43 binding to immobilized heparin-BSA (ELISA). Details: species or system porcine. The following applies: for IC50: TDP-43, heparin-BSA; for inhibition at 30 µM: read-out: TDP43/Heparin Activity (% inhibition class). As for the experimental part: as §1
TDP-43 binding to heparin (HS-GAG), sequence (Q13148 whole entry): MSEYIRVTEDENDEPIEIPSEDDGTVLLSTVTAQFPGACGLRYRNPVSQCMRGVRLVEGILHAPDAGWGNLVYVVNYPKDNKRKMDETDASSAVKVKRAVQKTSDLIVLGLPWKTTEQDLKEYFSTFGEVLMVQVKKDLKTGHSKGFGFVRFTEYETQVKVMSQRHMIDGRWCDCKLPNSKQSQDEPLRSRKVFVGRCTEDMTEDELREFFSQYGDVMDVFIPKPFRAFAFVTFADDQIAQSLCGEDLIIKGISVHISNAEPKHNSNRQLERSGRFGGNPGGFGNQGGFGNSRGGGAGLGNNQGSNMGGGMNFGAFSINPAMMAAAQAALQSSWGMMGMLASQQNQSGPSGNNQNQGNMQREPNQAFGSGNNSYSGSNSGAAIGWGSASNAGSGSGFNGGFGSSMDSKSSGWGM
The assay was performed as described in Example 43, with the following modifications.
Following to coating the plates with Heparin-BSA, plates were washed as described. The compounds were dissolved in DMSO at 10 mM final concentration and further diluted prior to assay. DMSO concentration in the screening well was up to 2%. Individual compounds were co-incubated with TDP-43 on plates containing immobilized heparin. TDP43 from R&D System (Cat. No. AP-190) was quickly frozen and kept in aliquots at −80 degrees Celsius. TDP-43 dissolved in PBS (pH 6.5, supplemented with BSA, 0.1%) was added to the ELISA plate (100 μl per well) and incubated for 2 hours at RT with gentle shaking. Following the incubation, the plate was washed with de-ionized water and three times with PBS (pH 6.5) plus Tween. Bound TDP-43 was detected by Anti-TDP43 Monoclonal Antibody (R&D System Cat. No. MAB7778), followed by secondary anti-IgG antibody conjugated to HRP (R&D System, Cat. No. HAF007). Following to color development with TMB, as described in Example 43, the Optical Density of the samples was measured at 450 nm using an ELISA plate reader. Following color development, the % inhibition compared to control (no compound, DMSO control) for every compound was determined.
As described in Example 43, Heparin in the form of Heparin-BSA conjugate is used as a source of HS-GAG. For each compound IC-50 value in TDP-43—heparin-BSA binding assay is shown in μM (micromolar). In some cases IC-50 was not measured and % inhibition at 30 μM compound concentration is shown instead. […] All assays were done on 96-well plates in duplicates and experiments were repeated at least twice. […]

[3] abbreviates: alpha-synuclein protofibrils, heparin-BSA, read-out: Alpha-Synuclein/Heparin Activity (IC-50).
Where [4] appears, read: read-out: TDP43/Heparin Activity (IC-50).
Setting [5] is: 30 μM compound, alpha-synuclein protofibrils, heparin-BSA.
[6] abbreviates: Alpha-Synuclein/Heparin Activity (IC-50), alpha-synuclein protofibrils, heparin-BSA.

Counter-ions that a name gives are not always drawn. Like-named read-outs stand apart in the source and are kept apart here.

`C/C(=N\Nc1ncnc2cc(F)ccc12)c1ccc(-n2cnc(C)c2C)nc1` [Compound 21, (E)-4-(2-(1-(6-(4,5-dimethyl-1H-imidazol-1-yl)pyridin-3-yl)ethylidene)hydrazineyl)-7-fluoroquinazoline]: the IC50 in assay [1] (setting [3]) was found to be 2.06 µM; in assay [2] (setting [4]), 4.6 µM.

Regarding `C/C(=N\Nc1ncnc2cc(Cl)ccc12)c1ccc(-n2cc(C)nc2C)nc1` [Compound 18, (E)-7-chloro-4-(2-(1-(6-(2,4-dimethyl-1H-imidazol-1-yl)pyridin-3-yl)ethylidene)hydrazineyl)quinazoline phosphoric acid salt], the IC50 was determined as 1.71 µM in assay [1] (setting [3]) and 4.77 µM in assay [2] (setting [4]).

On to `C[n+]1ccn(-c2ccc(Nc3ncnc4cc(Cl)ccc34)cn2)c1` [Compound 43, 1-(5-((7-chloroquinazolin-4-yl)amino)pyridin-2-yl)-3-methyl-1H-imidazol-3-ium iodide phosphoric acid salt], for which the inhibition at 30 µM in assay [1] and in assay [2] was under 30% in each case.

Turning to `O=S1(=O)CCN(Cc2ccc(/C=N/Nc3ccnc4cc(F)ccc34)cc2)CC1` [Compound 10, (E)-4-(4-((2-(7-fluoroquinolin-4-yl)hydrazono)methyl)benzyl)thiomorpholine 1,1-dioxide], the inhibition at 30 µM in assay [1] (setting [5]) was under 30%; in assay [2], over 30%.

For `C/C(=N\Nc1ncnc2cc(Cl)ccc12)c1ccc(-n2cnc(C)c2C)nc1` [Compound 16, 7-chloro-4-(2-(1-(6-(4,5-dimethyl-1H-imidazol-1-yl)pyridin-3-yl)ethylidene)hydrazineyl)quinazoline phosphate], the IC50 in assay [1] (setting [6]) stood at 3.21 µM; in assay [2] (TDP43/Heparin Activity (IC-50)), 2.16 µM.

In the case of `COc1cc2nccc(N/N=C/c3ccc(-n4ccnc4)c(OC)c3)c2cc1OC` [Compound 13, (E)-4-(2-(4-(1H-imidazol-1-yl)-3-methoxybenzylidene)hydrazineyl)-6,7-dimethoxyquinoline phosphate], in assay [1] (setting [6]), the IC50 stood at 35.2 µM. Moreover, the inhibition at 30 µM in assay [2] is under 30%.

Regarding `Cc1ncn(-c2ccc(/C=N/Nc3ccnc4cc(Cl)ccc34)cc2)c1C` [Compound 2, (E)-7-chloro-4-((E)-(4-(4,5-dimethyl-1H-imidazol-1-yl)benzylidene)hydrazono)-1,4-dihydroquinoline], the inhibition at 30 µM in assay [1] was under 30%. Further, the IC50 in assay [2] (TDP43/Heparin Activity (IC-50)) came out at 61.7 µM.

Take `Cc1ncn(-c2ccc(/C=N\Nc3ncnc4cc(Cl)ccc34)cn2)c1C` [Compound 15, 7-chloro-4-(2-((6-(4,5-dimethyl-1H-imidazol-1-yl)pyridin-3-yl)methylene)hydrazineyl)quinazoline hydrochloride]: the IC50 is 5.22 µM in assay [1] (setting [6]) and 3.06 µM in assay [2] (TDP43/Heparin Activity (IC-50)).

As to `CC(=NNc1ncnc2cc(Cl)ccc12)c1ccnc(-n2cnc(C)c2C)c1` [Compound 28, 7-chloro-4-(2-(1-(2-(4,5-dimethyl-1H-imidazol-1-yl)pyridin-4-yl)ethylidene)hydrazineyl)quinazoline], the IC50 in assay [1] (setting [3]) was found to be 3.23 µM; in assay [2] (setting [4]) it was 5.73 µM.

Consider `COc1ccc2c(NN=Cc3ccc(-n4ccnc4)c(C)c3)ccnc2c1` [Compound 12, 4-(2-(4-(1H-imidazol-1-yl)-3-methylbenzylidene)hydrazineyl)-7-methoxyquinoline], for which the inhibition at 30 µM in assay [1] and in assay [2] was under 30% in each case.

On to `C[n+]1ccc(/C=N\Nc2ccnc3ccccc23)cc1` [Compound 9, (Z)-1-methyl-4-((2-(quinolin-4-yl)hydrazono)methyl)pyridin-1-ium iodide], for which the inhibition at 30 µM in assay [1] (setting [5]) and in assay [2] was under 30% throughout.

`C/C(=N\Nc1ncnc2cc(F)ccc12)c1ccc(-n2cc[n+](C)c2)nc1` [Compound 26, (E)-1-(5-(1-(2-(7-fluoroquinazolin-4-yl)hydrazineylidene)ethyl)pyridin-2-yl)-3-methyl-1H-imidazol-3-ium phosphoric acid salt]: the inhibition at 30 µM in assay [1] was over 30%. Further, the IC50 in assay [2] (TDP43/Heparin Activity (IC-50)) turned out to be 32.8 µM.

Regarding `Clc1ccc2c(Nc3ccc(-n4cncn4)nc3)ncnc2c1` [Compound 34, N-(6-(1H-1,2,4-triazol-1-yl)pyridin-3-yl)-7-chloroquinazolin-4-amine phosphoric acid salt], the IC50 in assay [1] (setting [6]) was 5.06 µM; in assay [2] (TDP43/Heparin Activity (IC-50)) it was 5.23 µM.

On to `C[N+](C)(C)Cc1ccc(/C=N\Nc2ccnc3ccc(Cl)cc23)cc1` [Compound 4, (Z)-1-(4-((2-(6-chloroquinolin-4-yl)hydrazineylidene)methyl)phenyl)—N,N,N-trimethylmethanaminium iodide], for which the inhibition at 30 µM in assay [1] (setting [5]) was over 30%; in assay [2] it was under 30%.

For `Cc1ncn(-c2ccc(Nc3ncnc4cc(Cl)ccc34)cn2)c1C` [Compound 25, 7-chloro-N-(6-(4,5-dimethyl-1H-imidazol-1-yl)pyridin-3-yl)quinazolin-4-amine], the IC50 in assay [1] (setting [6]) came to 3.83 µM; in assay [2] (TDP43/Heparin Activity (IC-50)), 2.45 µM.

On to `C/C(=N\Nc1ncnc2cc(Cl)ccc12)c1cccc(N2CCN(C)CC2)c1` [Compound 30, 7-chloro-4-(2-(1-(3-(4-methylpiperazin-1-yl)phenyl)ethylidene)hydrazineyl)quinazoline], for which the inhibition at 30 µM in assay [1] was over 30%. In assay [2] (TDP43/Heparin Activity (IC-50)), the IC50 turned out to be 12.2 µM.

On to `Clc1ccc2c(N/N=C/c3ccc(-n4ccnc4)nc3)ccnc2c1` [Compound 14, (E)-4-(2-((6-(1H-imidazol-1-yl)pyridin-3-yl)methylene)hydrazineyl)-7-chloroquinoline hydrochloride], for which the figures for the IC50 in assay [1] (setting [6]) and in assay [2] (TDP43/Heparin Activity (IC-50)) were 2.02 µM and 4.32 µM, respectively.

On to `C/C(=N\Nc1ncnc2cc(Cl)ccc12)c1ccc(-n2cncn2)nc1` [Compound 32, (E)-4-(2-(1-(6-(1H-1,2,4-triazol-1-yl)pyridin-3-yl)ethylidene)hydrazineyl)-7-chloroquinazoline], for which the inhibition at 30 µM is over 30% in assay [1] and under 30% in assay [2].
